In assay [1] the test system is Cyclin G expression in pancreatic cancer cell line PL8. Description: RT-PCR analysis of Cyclin G expression after 5Aza-dC treatment. It is filed as cell-based, human. The settings on record: methylated cell line PL8, 5Aza-dC at a final concentration of 1 μM for 5 days, coamplified with GAPDH. As for the experimental part: (§1) Five pancreatic cancer cell lines (PL3, PL8, CAPAN2, Panc1, and MiaPaca2) and four normal pancreata were used for RT-PCR analysis. The cell lines were treated with demethylating agent 5Aza-dC (Sigma Chemical Co.) at a final concentration of 1 μM for 5 days. Total RNA was prepared using TRIzol (Life Technologies, Inc.), reverse-transcribed and amplified. As a control for cDNA integrity, glyceraldehyde-3-phosphate dehydrogenase gene (GAPDH) was also amplified. Primer sequences for RT-PCR are listed in Table 3 and are available at http://pathology2.jhu.edu/pancreas/prim0425.htm, which website is incorporated herein by reference.
(§2) Partial methylation (˜50%) of the 5′ CpG island of Cyclin G in PL8 (FIG. 4C) was associated with decreased expression of Cyclin G by RT-PCR. The 5′ CpG island of Cyclin G was not methylated in a panel of normal pancreata. Cyclin G was expressed in 4 normal pancreata by RT-PCFR. […] Thus, hypermethylation of the 5′ CpG islands of Cyclin G and ppENK is coincides with decreased expression in pancreatic cancers.

Assay [2] relates to ppENK expression in pancreatic cancer cell lines PL3, CAPAN2, MiaPaca2 and Panc1. Description: RT-PCR analysis of ppENK expression after 5Aza-dC treatment. It counts as cell-based, human. Conditions: 4 methylated cell lines (PL3, CAPAN2, MiaPaca2, Panc1), 5Aza-dC at a final concentration of 1 μM for 5 days, coamplified with GAPDH. As for the experimental part: as §1, §2
The mark [3] stands for this setting: listed as 5-aza-2′-deoxycytidine.

Consider `Nc1ncn([C@H]2C[C@H](O)[C@@H](CO)O2)c(=O)n1` [5Aza-dC, 5-aza-2′-deoxycytidine], for which the entries for the “Cyclin G expression by RT-PCR” value in assay [1], in assay [1] (setting [3]) and in assay [1] (listed as 5 Aza-dC) were “restored the expression of Cyclin G”, “reversible” and “increased Cyclin G expression”, respectively. For the same compound, the “ppENK expression by RT-PCR” value is given as “restored ppENK expression in all 4 cell lines” in assay [2], “reversible” in assay [2] (setting [3]) and “restored the ppENK expression” in assay [2] (listed as 5 Aza-dC).

Source of the values: patent US7153653B2, “Differentially methylated sequences in pancreatic cancer” (The Johns Hopkins University School of Medicine, priority 2001, dated 2006).
